In ChEMBL document CHEMBL3994582, “A2B adenosine receptor antagonists: Design, synthesis and biological evaluation of novel xanthine derivatives” (Eur J Med Chem, 2017) one finds Drug metabolism, inhibition and Ki data, which are given here for 14 compounds.

Data set [1] concerns Liver. The data set can be described thus: Metabolic stability in mouse liver microsomes assessed as metabolic rate per mg protein preincubated for 5 mins followed by NADPH addition measured up to 30 mins by LC-MS/MS analysis. Format: ADME, microsome. Particulars: 0.5 h. In general terms: Liver microsomes are vesicles of endoplasmic reticulum, rich in cytochrome P450 enzymes.

Data set [2] relates to Liver. The data set can be described thus: Metabolic stability in human liver microsomes assessed as metabolic rate per mg protein preincubated for 5 mins followed by NADPH addition measured up to 30 mins by LC-MS/MS analysis. The conditions noted are these: 0.5 h. Format: ADME, microsome.
The next data set has as its target Adenosine receptor A2a (Homo sapiens, UniProt P29274). The data set can be described thus: Displacement of [3H]-ZM-241385 from human adenosine receptor A2a expressed in HEK293 cell membranes at 0.1 uM after 90 mins by liquid scintillation counting method relative to control.
The target of data set [3] is T1, Adenosine receptor A3 (Homo sapiens) (UniProt P0DMS8).
T1 sequence (whole entry): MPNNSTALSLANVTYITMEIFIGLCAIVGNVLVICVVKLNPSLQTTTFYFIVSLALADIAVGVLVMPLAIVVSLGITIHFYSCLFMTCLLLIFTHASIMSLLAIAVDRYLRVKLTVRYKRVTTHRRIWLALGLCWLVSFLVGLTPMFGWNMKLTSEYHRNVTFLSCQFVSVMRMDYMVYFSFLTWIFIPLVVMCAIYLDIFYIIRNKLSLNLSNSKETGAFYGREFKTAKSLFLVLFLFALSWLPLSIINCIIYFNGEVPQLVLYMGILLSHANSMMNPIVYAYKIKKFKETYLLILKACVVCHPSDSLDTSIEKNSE
The data set can be described thus: Displacement of [3H]-HEM-ADO from human adenosine receptor A3 expressed in HEK293 cell membranes at 1 uM after 90 mins by liquid scintillation counting method relative to control. Background: In a radioligand displacement assay an active substance lowers the binding of a labelled ligand.

A further data set concerns the target T2, Adenosine receptor A2b (Homo sapiens, UniProt P29275).
T2 sequence (P29275 whole entry): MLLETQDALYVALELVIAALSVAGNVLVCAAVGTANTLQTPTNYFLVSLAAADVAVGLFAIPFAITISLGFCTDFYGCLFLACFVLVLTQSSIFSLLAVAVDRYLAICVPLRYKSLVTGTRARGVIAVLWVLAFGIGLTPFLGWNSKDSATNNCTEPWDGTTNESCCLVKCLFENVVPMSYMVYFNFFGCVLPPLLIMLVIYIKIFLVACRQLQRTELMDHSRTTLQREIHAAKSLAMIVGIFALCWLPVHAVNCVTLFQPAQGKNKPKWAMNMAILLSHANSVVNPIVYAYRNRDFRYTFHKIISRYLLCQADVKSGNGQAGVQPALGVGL
The data set can be described thus: Displacement of [3H]-MRS-1754 from human adenosine receptor A2b expressed in HEK293 cell membranes after 90 mins by liquid scintillation counting method.

The target in data set [4] is T3, Adenosine receptor A1 (Homo sapiens) (UniProt P30542).
T3 sequence (whole entry): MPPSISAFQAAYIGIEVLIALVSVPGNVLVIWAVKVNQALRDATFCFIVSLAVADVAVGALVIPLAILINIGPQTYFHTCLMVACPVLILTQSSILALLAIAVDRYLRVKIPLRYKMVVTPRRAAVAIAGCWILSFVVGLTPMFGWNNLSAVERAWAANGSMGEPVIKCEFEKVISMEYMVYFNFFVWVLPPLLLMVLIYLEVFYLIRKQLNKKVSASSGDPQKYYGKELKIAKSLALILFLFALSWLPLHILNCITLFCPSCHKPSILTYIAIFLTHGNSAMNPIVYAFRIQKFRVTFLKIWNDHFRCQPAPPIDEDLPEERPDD
The data set can be described thus: Displacement of [3H]DPCPX from human adenosine receptor A1 expressed in HEK293 cell membranes at 0.1 uM after 90 mins by liquid scintillation counting method relative to control.

Sequence of Adenosine receptor A2a (P29274 whole entry): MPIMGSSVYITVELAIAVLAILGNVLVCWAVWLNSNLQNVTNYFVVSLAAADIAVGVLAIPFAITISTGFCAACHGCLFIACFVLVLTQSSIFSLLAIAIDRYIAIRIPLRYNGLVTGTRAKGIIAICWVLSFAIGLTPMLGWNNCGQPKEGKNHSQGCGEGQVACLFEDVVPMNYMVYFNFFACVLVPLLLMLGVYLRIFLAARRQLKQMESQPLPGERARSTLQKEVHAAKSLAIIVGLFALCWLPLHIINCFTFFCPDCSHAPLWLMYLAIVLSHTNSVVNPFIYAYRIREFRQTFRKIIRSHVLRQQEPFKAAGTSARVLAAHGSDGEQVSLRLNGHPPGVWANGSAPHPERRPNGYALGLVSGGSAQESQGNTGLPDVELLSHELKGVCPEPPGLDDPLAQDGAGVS

On to `CCCn1c(=O)c2[nH]c(-c3cnn(C(C)C4CC(=O)N(c5cccc(C(F)(F)F)c5)C4)c3)nc2n(CCC)c1=O` (stereo not drawn), for which the Drug metabolism with Liver [1] is 0.59 nmol/min/mg; in the data set with Liver [2] it was 0.2 nmol/min/mg. For the same compound, the inhibition on Adenosine receptor A2a was found to be 15%; in data set [3], 18%; in data set [4] it was 17%. Moreover, the Ki at Adenosine receptor A2b was 4 nM.
Turning to `CCCn1c(=O)c2[nH]c(-c3cnn(CC4CCN(c5ccc(C)cc5)C4)c3)nc2n(CCC)c1=O` (stereo not drawn), the Drug metabolism in the data set on Liver [1] turned out to be 0.38 nmol/min/mg; in the data set with Liver [2] it was 0.66 nmol/min/mg. The figures for the inhibition (at Adenosine receptor A2a; in data set [3]; in data set [4]) were 51%, 2% and 26%, respectively. On Adenosine receptor A2b, the affinity, expressed as Ki, was 12 nM.
With `CCCn1c(=O)c2[nH]c(-c3cnn(CC4CC(=O)N(c5cccc(OC(F)(F)F)c5)C4)c3)nc2n(CCC)c1=O` (stereo not drawn), the results for the Drug metabolism in the data set on Liver [1] and in the data set with Liver [2] were 0.57 nmol/min/mg and 0.23 nmol/min/mg, respectively. Moreover, the inhibition on Adenosine receptor A2a stood at 49%; in data set [3], 0%; in data set [4], 20%. On Adenosine receptor A2b, this compound came in with a Ki of 9 nM.
As for `CCCn1c(=O)c2[nH]c(-c3cnn(CC4CC(=O)N(c5ccc(C(=O)O)cc5)C4)c3)nc2n(CCC)c1=O` (stereo not drawn), the affinity on Adenosine receptor A2b corresponds to a Ki of 77 nM.
For `CCCn1c(=O)c2[nH]c(-c3cnn(CC4CC(=O)N(c5cccc(OC(F)(F)F)c5)C4)c3)nc2n(CC)c1=O` (stereo not drawn), the Drug metabolism in the data set on Liver [1] is 0.25 nmol/min/mg; in the data set with Liver [2], 0.4 nmol/min/mg. In addition, the inhibition on Adenosine receptor A2a turned out to be 16%; in data set [3], 3%; in data set [4], 15%. For the same compound, the inhibition constant (Ki) on Adenosine receptor A2b worked out at 17.5 nM.
With `CCCn1c(=O)c2[nH]c(-c3cnn(CC(=O)N4CCN(c5ccc(C)cc5)CC4)c3)nc2n(CCC)c1=O`, the inhibition on Adenosine receptor A2a was 58%; in data set [3], 11%; in data set [4], 58%. The Ki on Adenosine receptor A2b was determined as 5 nM.
On to `CCCn1c(=O)c2[nH]c(-c3cnn(CC4CC(=O)N(c5cccc(OC)c5)C4)c3)nc2n(CCC)c1=O` (stereo not drawn), for which the results for the Drug metabolism in the data set on Liver [1] and in the data set on Liver [2] were 0.41 nmol/min/mg and 0.18 nmol/min/mg, respectively. For the same compound, the figures for the inhibition (on Adenosine receptor A2a; in data set [3]; in data set [4]) were 46%, 11% and 22%, respectively. At Adenosine receptor A2b, this compound gave a Ki of 21.6 nM.
As for `CCCn1c(=O)c2[nH]c(-c3cnn(CC4CCN(c5cccc(F)c5)C4=O)c3)nc2n(CCC)c1=O` (stereo not drawn), the Ki on Adenosine receptor A2b came out at 43 nM.
Turning to `CCCn1c(=O)c2[nH]c(-c3cc(OCC4CC(=O)N(c5ccc(F)cc5)C4)no3)nc2n(CCC)c1=O` (stereo not drawn), the results for the inhibition (at Adenosine receptor A2a; in data set [3]; in data set [4]) were 0%, 7% and 0%, respectively. The Ki at Adenosine receptor A2b amounted to 210 nM.
With `CCCn1c(=O)c2[nH]c(-c3cc(OCC4CC(=O)N(c5cccc(C(F)(F)F)c5)C4)no3)nc2n(CCC)c1=O` (stereo not drawn), the figures for the inhibition (at Adenosine receptor A2a; in data set [3]; in data set [4]) were 0%, 5% and 0%, respectively. This compound also came in with a Ki on Adenosine receptor A2b of 69 nM.
In the case of `CCCn1c(=O)c2[nH]c(-c3cnn(CC(=O)N4CCN(c5ccc(F)c(Cl)c5)CC4)c3)nc2n(CCC)c1=O`, the inhibition was 72% at Adenosine receptor A2a, 17% in data set [3] and 56% in data set [4]. At Adenosine receptor A2b, the Ki was determined as 1.8 nM.
`CCCn1c(=O)c2[nH]c(-c3cc(OCC4CC(=O)N(c5cccc(F)c5)C4)no3)nc2n(CCC)c1=O` (stereo not drawn) displayed an inhibition constant (Ki) at Adenosine receptor A2b of 90 nM.
As for `CCCn1c(=O)c2[nH]c(-c3cnn(CC(=O)N4CCN(c5ccc(C(F)(F)F)cc5)CC4)c3)nc2n(CCC)c1=O`, the values for the inhibition (at Adenosine receptor A2a; in data set [3]; in data set [4]) were 71%, 11% and 53%, respectively. Moreover, the Ki on Adenosine receptor A2b came out at 0.9 nM.
As to `CCCn1c(=O)c2[nH]c(-c3cnn(CC4CC(=O)N(c5ccc(C)cc5)C4)c3)nc2n(CCC)c1=O` (stereo not drawn), in the data set on Liver [1], the Drug metabolism came out at 0.25 nmol/min/mg. Moreover, the inhibition on Adenosine receptor A2a stood at 37%; in data set [3] it was 0%; in data set [4] it was 33%. Also, the Ki on Adenosine receptor A2b came to 8 nM.

Usually inhibition stands for how much of the control response was suppressed. Low values mean a response near the control, high ones a response far below the control. Usually Ki stands for the dissociation constant of the complex between target and ligand, obtained from inhibition or displacement. Low readings indicate tighter binding, high ones weaker binding.
